Test results from US12202835B2, “Substituted aromatic ring-linked dioxinoquinazolines and dioxinoquinolines as kinase inhibitors” (BEIJING SCITECH-MQ PHARMACEUTICALS LIMITED, priority 2018, dated 2025).

What was measured:
Ba/F3 LMNA-NTRK1 cells = assay: Assay for inhibiting the proliferation of Ba/F3 LMNA-NTRK1 cells (CCK-8); format: cell-based; conditions: Mus musculus, BaF3
Summary of the method: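 Viability was read as absorbance at 450 nm following 1–2 h CCK-8 incubation at 37 °C, relative to control and blank wells.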

MER kinase = MER kinase (Homo sapiens (Human), UniProt Q12866); assay: Assay of small molecular compounds for inhibiting the activity of MER kinase (LANCE TR-FRET); format: biochemical
Summary of the method: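 LANCE TR-FRET readout of ULight-poly GT phosphorylation by MER kinase; compound final range 0.042-2500 nM, 3-fold steps, 5 min enzyme preincubation. Reaction 60 min at room temperature in the dark with substrate/ATP (4× at 200 nM/20 μM), 1% DMSO, then stopped and developed 60 min; IC50 by curve fit.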

TRKA kinase = TRKA kinase (Homo sapiens (Human), UniProt P04629); assay: Assay of small molecular compounds for inhibiting the activity of TRKA kinase (LANCE TR-FRET); format: biochemical
Summary of the method: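 TRKA (supplied as 2 nM 2× solution) was pre-reacted with compounds for 5 min at room temperature before a 4× ULight-TK peptide/ATP mix (400 nM/40 μM) started the 60-min dark reaction at 1% DMSO. After stop and 60-min detection, TR-FRET was read.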

Sequence of MER kinase (Q12866 21-999): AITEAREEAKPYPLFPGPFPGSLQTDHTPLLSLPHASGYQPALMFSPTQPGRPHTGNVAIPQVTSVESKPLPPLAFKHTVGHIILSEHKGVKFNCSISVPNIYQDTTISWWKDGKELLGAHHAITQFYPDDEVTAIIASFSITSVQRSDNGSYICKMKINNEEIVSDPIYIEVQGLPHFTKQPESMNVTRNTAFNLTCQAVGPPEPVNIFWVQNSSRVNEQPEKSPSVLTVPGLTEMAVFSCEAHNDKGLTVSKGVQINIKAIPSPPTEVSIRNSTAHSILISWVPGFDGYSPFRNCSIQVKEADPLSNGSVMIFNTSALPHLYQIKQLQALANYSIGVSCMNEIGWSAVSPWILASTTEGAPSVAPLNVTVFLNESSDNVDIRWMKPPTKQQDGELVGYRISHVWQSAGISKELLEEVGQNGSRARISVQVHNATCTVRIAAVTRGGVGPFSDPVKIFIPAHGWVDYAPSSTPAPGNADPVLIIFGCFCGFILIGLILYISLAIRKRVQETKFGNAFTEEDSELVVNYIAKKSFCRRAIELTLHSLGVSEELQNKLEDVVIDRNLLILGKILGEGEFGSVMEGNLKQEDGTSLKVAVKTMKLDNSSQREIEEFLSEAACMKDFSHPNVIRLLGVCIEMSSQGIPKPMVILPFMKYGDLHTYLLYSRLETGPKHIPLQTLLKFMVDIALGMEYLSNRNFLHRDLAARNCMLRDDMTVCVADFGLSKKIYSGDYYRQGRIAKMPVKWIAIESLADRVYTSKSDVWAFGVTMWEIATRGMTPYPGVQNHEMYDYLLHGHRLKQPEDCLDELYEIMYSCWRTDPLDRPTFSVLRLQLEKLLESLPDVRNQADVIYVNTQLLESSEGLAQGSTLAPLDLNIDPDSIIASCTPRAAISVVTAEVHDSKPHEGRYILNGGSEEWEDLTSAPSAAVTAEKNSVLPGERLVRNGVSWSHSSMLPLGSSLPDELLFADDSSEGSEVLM
Sequence of TRKA kinase (P04629 33-796): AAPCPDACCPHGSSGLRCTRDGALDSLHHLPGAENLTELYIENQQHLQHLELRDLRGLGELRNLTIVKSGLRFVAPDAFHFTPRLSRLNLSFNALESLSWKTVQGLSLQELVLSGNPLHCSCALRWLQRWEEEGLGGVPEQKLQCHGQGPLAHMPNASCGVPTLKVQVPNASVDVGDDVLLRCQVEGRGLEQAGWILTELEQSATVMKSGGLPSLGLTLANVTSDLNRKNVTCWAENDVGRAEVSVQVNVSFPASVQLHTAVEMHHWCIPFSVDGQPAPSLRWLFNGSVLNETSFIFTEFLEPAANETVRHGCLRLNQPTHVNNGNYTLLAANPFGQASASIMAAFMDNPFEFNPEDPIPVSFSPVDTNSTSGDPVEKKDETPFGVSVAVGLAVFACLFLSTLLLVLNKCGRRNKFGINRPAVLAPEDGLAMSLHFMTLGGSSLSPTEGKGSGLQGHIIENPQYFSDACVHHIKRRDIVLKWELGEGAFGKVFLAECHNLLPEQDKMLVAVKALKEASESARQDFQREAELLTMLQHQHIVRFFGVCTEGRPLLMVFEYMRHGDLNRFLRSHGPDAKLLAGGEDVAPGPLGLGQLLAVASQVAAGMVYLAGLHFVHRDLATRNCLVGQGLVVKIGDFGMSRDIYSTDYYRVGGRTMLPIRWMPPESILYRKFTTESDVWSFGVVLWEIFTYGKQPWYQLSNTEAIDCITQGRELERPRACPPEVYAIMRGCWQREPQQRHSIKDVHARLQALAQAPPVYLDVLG

| IC50 (Ba/F3 LMNA-NTRK1 cells) | IC50 (MER kinase) | IC50 (TRKA kinase) | SMILES |
| --- | --- | --- | --- |
| < 50 nM | ≤ 50 nM | < 50 nM | COc1cc2nccc(Oc3cc(Cl)c(NC(=O)c4cn(C)c(=O)n(-c5ccc(F)cc5)c4=O)cc3F)c2c2c1OCCO2 [Example 116, N-(2-chloro-5-fluoro-4-((5-methoxy-2,3-dihydro-[1,4]dioxino[2,3-f]quinolin-10-yl)oxy)phenyl)-3-(4-fluorophenyl)-1-methyl-2,4-dioxo-1,2,3,4-tetrahydropyrimidine-5-carboxamide] |
| < 50 nM | ≤ 50 nM | < 50 nM | COCCOc1cc2nccc(Oc3ccc(NC(=O)c4c(OC)ccn(-c5ccc(F)cc5)c4=O)cc3F)c2c2c1OCCO2 [Example 35, N-(3-fluoro-4-((5-(2-methoxyethoxy)-2,3-dihydro-[1,4]dioxino[2,3-f]quinolin-10-yl)oxy)phenyl)-1-(4-fluorophenyl)-4-methoxy-2-oxo-1,2-dihydropyridine-3-carboxamide] |
| < 50 nM | ≤ 50 nM | < 50 nM | COc1cc2nccc(Oc3ccc(NC(=O)c4c(OC)ccn(-c5ccc(F)cc5)c4=O)cc3F)c2c2c1OCCO2 [Example 18, N-(3-fluoro-4-((5-methoxy-2,3-dihydro-[1,4]dioxino[2,3-f]quinolin-10-yl)oxy)phenyl)-1-(4-fluorophenyl)-4-methoxy-2-oxo-1,2-dihydropyridine-3-carboxamide] |
| < 50 nM | ≤ 50 nM | < 50 nM | COc1ccn(-c2ccc(F)cc2)c(=O)c1C(=O)Nc1ccc(Oc2ccnc3cc(OCC(C)(C)O)c4c(c23)OCCO4)cc1Cl [Example 140, N-(2-chloro-4-((5-(2-hydroxy-2-methylpropoxy)-2,3-dihydro-[1,4]dioxino[2,3-f]quinolin-10-yl)oxy)phenyl)-1-(4-fluorophenyl)-4-methoxy-2-oxo-1,2-dihydropyridine-3-carboxamide] |
| < 50 nM | ≤ 50 nM | < 50 nM | CC(C)n1cc(C(=O)Nc2ccc(Oc3ccnc4cc(OCCCN5CCOCC5)c5c(c34)OCCO5)c(F)c2)c(=O)n(-c2ccc(F)cc2)c1=O [Example 16, N-(3-fluoro-4-((5-(3-morpholinopropoxy)-2,3-dihydro-[1,4]dioxino[2,3-f]quinolin-10-yl)oxy)phenyl)-3-(4-fluorophenyl)-1-isopropyl-2,4-dioxo-1,2,3,4-tetrahydropyrimidine-5-carboxamide] |
| < 50 nM | ≤ 50 nM | < 50 nM | COCCOc1cc2nccc(Oc3ccc(NC(=O)c4cn(C)c(=O)n(-c5ccc(F)cc5)c4=O)cc3F)c2c2c1OCCO2 [Example 42, N-(3-fluoro-4-((5-(2-methoxyethoxy)-2,3-dihydro-[1,4]dioxino[2,3-f]quinolin-10-yl)oxy)phenyl)-3-(4-fluorophenyl)-1-methyl-2,4-dioxo-1,2,3,4-tetrahydropyrimidine-5-carboxamide] |
| < 50 nM | ≤ 50 nM | < 50 nM | Cn1cc(C(=O)Nc2ccc(Oc3ccnc4cc(OCCCN5CCOCC5)c5c(c34)OCCO5)c(F)c2)c(=O)n(-c2ccc(F)cc2)c1=O [Example 15, N-(3-fluoro-4-((5-(3-morpholinopropoxy)-2,3-dihydro-[1,4]dioxino[2,3-f]quinolin-10-yl)oxy)phenyl)-3-(4-fluorophenyl)-1-methyl-2,4-dioxo-1,2,3,4-tetrahydropyrimidine-5-carboxamide] |
| < 50 nM | ≤ 50 nM | < 50 nM | CCOc1cc2nccc(Oc3ccc(NC(=O)c4cn(C)c(=O)n(-c5ccc(F)cc5)c4=O)c(Cl)c3)c2c2c1OCCO2 [Example 129, N-(2-chloro-4-((5-ethoxy-2,3-dihydro-[1,4]dioxino[2,3-f]quinolin-10-yl)oxy)phenyl)-3-(4-fluorophenyl)-1-methyl-2,4-dioxo-1,2,3,4-tetrahydropyrimidine-5-carboxamide] |
| < 50 nM | ≤ 50 nM | < 50 nM | COCCOc1cc2nccc(Oc3ccc(NC(=O)c4cccn(-c5ccc(F)cc5)c4=O)cc3F)c2c2c1OCCO2 [Example 34, N-(3-fluoro-4-((5-(2-methoxyethoxy)-2,3-dihydro-[1,4]dioxino[2,3-f]quinolin-10-yl)oxy)phenyl)-1-(4-fluorophenyl)-2-oxo-1,2-dihydropyridine-3-carboxamide] |
| < 50 nM | ≤ 50 nM | < 50 nM | CCOc1ccn(-c2ccc(F)cc2)c(=O)c1C(=O)Nc1ccc(Oc2ccnc3cc(OCCCN4CCCCC4)c4c(c23)OCCO4)c(F)c1 [Example 33, N-(3-fluoro-4-((5-(3-(piperidin-1-yl)propoxy)-2,3-dihydro-[1,4]dioxino[2,3-f]quinolin-10-yl)oxy)phenyl)-1-(4-fluorophenyl)-4-ethoxy-2-oxo-1,2-dihydropyridine-3-carboxamide] |
| 50 to 200 nM | ≤ 50 nM | < 50 nM | CC(C)n1cc(C(=O)Nc2ccc(Oc3ccnc4cc(OCCCN5CCC(C)(O)CC5)c5c(c34)OCCO5)c(F)c2)c(=O)n(-c2ccc(F)cc2)c1=O [Example 94, N-(3-fluoro-4-((5-(3-(4-methyl-4-hydroxypiperidin-1-yl)propoxy)-2,3-dihydro-[1,4]dioxino[2,3-f]quinolin-10-yl)oxy)phenyl)-3-(4-fluorophenyl)-1-isopropyl-2,4-dioxo-1,2,3,4-tetrahydropyrimidine-5-carboxamide] |
| < 50 nM | ≤ 50 nM | < 50 nM | CCOc1ccn(-c2ccc(F)cc2)c(=O)c1C(=O)Nc1ccc(Oc2ccnc3cc(OCCOC)c4c(c23)OCCO4)c(F)c1 [Example 36, N-(3-fluoro-4-((5-(2-methoxyethoxy)-2,3-dihydro-[1,4]dioxino[2,3-f]quinolin-10-yl)oxy)phenyl)-1-(4-fluorophenyl)-4-ethoxy-2-oxo-1,2-dihydropyridine-3-carboxamide] |
| < 50 nM | ≤ 50 nM | < 50 nM | CC(C)n1cc(C(=O)Nc2ccc(Oc3ccnc4cc(OCCCN5CCCCC5)c5c(c34)OCCO5)c(F)c2)c(=O)n(-c2ccc(F)cc2)c1=O [Example 40, N-(3-fluoro-4-((5-(3-(piperidin-1-yl)propoxy)-2,3-dihydro-[1,4]dioxino[2,3-f]quinolin-10-yl)oxy)phenyl)-3-(4-fluorophenyl)-1-isopropyl-2,4-dioxo-1,2,3,4-tetrahydropyrimidine-5-carboxamide] |
| < 50 nM | 50 to 500 nM | < 50 nM | COc1cc2nccc(Oc3ccc(NC(=O)c4cn(C)c(=O)n(-c5ccc(F)cc5)c4=O)c(Cl)c3)c2c2c1OCCO2 [Example 125, N-(2-chloro-4-((5-methoxy-2,3-dihydro-[1,4]dioxino[2,3-f]quinolin-10-yl)oxy)phenyl)-3-(4-fluorophenyl)-1-methyl-2,4-dioxo-1,2,3,4-tetrahydropyrimidine-5-carboxamide] |
| 50 to 200 nM | ≤ 50 nM | < 50 nM | CCOc1ccn(-c2ccc(F)cc2)c(=O)c1C(=O)Nc1ccc(Oc2ccnc3cc(OCC4(N)CC4)c4c(c23)OCCO4)c(F)c1 [Example 105, N-(4-((5-((1-aminocyclopropyl)methoxy)-2,3-dihydro-[1,4]dioxino[2,3-f]quinolin-10-yl)oxy)-3-fluorophenyl)-4-ethoxy-1-(4-fluorophenyl)-2-oxo-1,2-dihydropyridine-3-carboxamide] |
| < 50 nM | ≤ 50 nM | < 50 nM | Cn1cc(C(=O)Nc2ccc(Oc3ccnc4cc(OCCCN5CCCCC5)c5c(c34)OCCO5)cc2Cl)c(=O)n(-c2ccc(F)cc2)c1=O [Example 137, N-(2-chloro-4-((5-((3-piperidin-1-yl)propoxy)-2,3-dihydro-[1,4]dioxino[2,3-f]quinolin-10-yl)oxy)phenyl)-3-(4-fluorophenyl)-1-methyl-2,4-dioxo-1,2,3,4-tetrahydropyrimidine-5-carboxamide] |
| < 50 nM | ≤ 50 nM | < 50 nM | CC(C)n1cc(C(=O)Nc2ccc(Oc3ccnc4cc(OCCCN5CCOCC5)c5c(c34)OCCO5)c(Cl)c2)c(=O)n(-c2ccc(F)cc2)c1=O [Example 97, N-(3-chloro-4-((5-(3-morpholinopropoxy)-2,3-dihydro-[1,4]dioxino[2,3-f]quinolin-10-yl)oxy)phenyl)-3-(4-fluorophenyl)-1-isopropyl-2,4-dioxo-1,2,3,4-tetrahydropyrimidine-5-carboxamide] |
| < 50 nM | ≤ 50 nM | < 50 nM | CC(C)(O)COc1cc2nccc(Oc3ccc(NC(=O)c4cccn(-c5ccc(F)cc5)c4=O)c(Cl)c3)c2c2c1OCCO2 [Example 139, N-(2-chloro-4-((5-(2-hydroxy-2-methylpropoxy)-2,3-dihydro-[1,4]dioxino[2,3-f]quinolin-10-yl)oxy)phenyl)-1-(4-fluorophenyl)-2-oxo-1,2-dihydropyridine-3-carboxamide] |

| SMILES | IC50 (Ba/F3 LMNA-NTRK1 cells) | IC50 (MER kinase) | IC50 (TRKA kinase) |
| --- | --- | --- | --- |
| CCOc1ccn(-c2ccc(F)cc2)c(=O)c1C(=O)Nc1ccc(Oc2ccnc3cc(OCC(C)(C)O)c4c(c23)OCCO4)cc1Cl [Example 142, N-(2-chloro-4-((5-(2-hydroxy-2-methylpropoxy)-2,3-dihydro-[1,4]dioxino[2,3-f]quinolin-10-yl)oxy)phenyl)-1-(4-fluorophenyl)-4-ethoxy-2-oxo-1,2-dihydropyridine-3-carboxamide] | < 50 nM | ≤ 50 nM | < 50 nM |
